In brackets after ≈: the same amount, converted by molar mass.
Experiments:
B. subtilis ATCC 6633 = test: Inhibition of biofilm formation (crystal violet); format: cell-based, Bacillus subtilis; settings: for BIC50: biofilm coverage reduced by 50%; for BIC90: biofilm coverage reduced by 90%
Experimental: (§1) The procedure involved preparing 96-well microtiter plates (Sarstedt, Nümbrecht, Germany) by adding 100 μL of Mueller-Hinton nutrient broth to each well. A 10 μL aliquot of bacterial suspension (adjusted to 1.0 McFarland for Gram-positive bacteria and 0.5 McFarland for Gram-negative bacteria) was added to the wells. The plates were then incubated at 37 °C for 48 h to allow biofilm formation. After incubation, the wells were washed twice with 200 μL of sterile 0.85% saline to remove non-adherent and weakly adherent cells. Biofilms formed by the adherent bacteria were fixed with 100 μL of methanol until fully evaporated. The biofilms were then stained using 0.1% (w/v) crystal violet (Fluka Chemie AG, Buchs, Switzerland) and left at room temperature for 20 min. After staining, excess dye was washed off with deionized water, followed by 96% ethanol. Controls included wells containing only nutrient broth to check for sterility and nonspecific binding. Background absorbance from the sterile medium, fixative, and dye was subtracted from the OD readings of the test samples. All experiments were performed in triplicate.
(§2) To assess the inhibition of biofilm formation, 96-well microtiter plates (Sarstedt, Nümbrecht, Germany) were prepared by dispensing 100 μL of Mueller-Hinton broth into each well. From stock solutions of tested compounds (at 10 mg/mL), 100 μL was added to the first row of the plate, followed by twofold serial dilutions (from 5 to 0.039 mg/mL) using a multichannel pipette (Eppendorf AG, Hamburg, Germany). Subsequently, 10 μL of fresh bacterial suspension (adjusted to 0.5 McFarland for Gram-negative and 1.0 McFarland for Gram-positive bacteria) was added to each well. The plates were incubated at 37 °C for 48 h. After incubation, the contents of the wells were carefully removed by tapping, and the remainder of the experiment was conducted following the procedure described above.
(§3) Controls consisted of wells containing only broth or broth with the tested compounds to assess sterility and nonspecific binding. Background absorbance was subtracted from test readings as described earlier. All experiments were performed in triplicate, and tetracycline (Sigma-Aldrich, St. Louis, MO, USA), dissolved in nutrient broth, was used as a reference compound.

K. pneumoniae = test: Inhibition of biofilm formation (crystal violet); format: cell-based, Klebsiella pneumoniae; settings: for BIC50: biofilm coverage reduced by 50%; for BIC90: biofilm coverage reduced by 90%
Experimental: as §1, §2, §3

S. aureus ATCC 25923 = test: Inhibition of biofilm formation (crystal violet); format: cell-based, Staphylococcus aureus; settings: for BIC50: biofilm coverage reduced by 50%; for BIC90: biofilm coverage reduced by 90%
Experimental: as §1, §2, §3

S. enterica = test: Inhibition of biofilm formation (crystal violet); format: cell-based, Salmonella enterica; settings: for BIC50: biofilm coverage reduced by 50%; for BIC90: biofilm coverage reduced by 90%
Experimental: as §1, §2, §3

P. mirabilis = test: Inhibition of biofilm formation (crystal violet); format: cell-based, Proteus mirabilis; settings: for BIC50: biofilm coverage reduced by 50%; for BIC90: biofilm coverage reduced by 90%
Experimental: as §1, §2, §3

tested bacterial strains = test: Microdilution MIC, summary over tested bacterial strains; format: cell-based; settings: for MIC values, range over bacterial strains: all tested bacteria; for MIC: read-out: MIC against E. coli ATCC 25922 and S. aureus ATCC 25923 (abstract)
Experimental: The antimicrobial activity was evaluated against 15 microorganisms. This included 11 bacterial strains: four standard strains (Staphylococcus aureus ATCC 25923, Bacillus subtilis ATCC 6633, Bacillus pumilus NCTC 8241, and Escherichia coli ATCC 25922) and six clinical or environmental isolates (Staphylococcus aureus, Escherichia coli, Bacillus cereus, Proteus mirabilis, Salmonella enterica, and Klebsiella pneumoniae). One probiotic strain, Bifidobacterium animalis subsp. lactis was tested. In addition, four fungal strains, Candida albicans ATCC 10231, Trichoderma viride ATCC 13233, Aspergillus flavus ATCC 9170, and Fusarium solani ATCC 11712 were tested. The bacterial strains were kept in glycerol stock at −80 °C and the fungal strains in paraffin oil stock at 4 °C.
Bacterial and yeast suspensions were prepared using the direct colony method, as previously described by Andrews. The turbidity of the initial suspensions was adjusted to match the 0.5 McFarland standard using a densitometer (Biosan, Riga, Latvia), corresponding to approximately 10^8 colony-forming units (CFU)/mL for bacterial cells and 10^6 CFU/mL for yeast cells. Subsequently, 1:100 dilutions of the initial suspensions were prepared in sterile 0.85% saline. Fungal spore suspensions were obtained by gently harvesting spores from agar slopes containing mature mycelial growth. The collected spore suspensions were then diluted 1:1000 in sterile 0.85% saline prior to use.
Antimicrobial activity was evaluated by determining the minimum inhibitory concentration (MIC) and minimum microbicidal concentration (MMC) using the microdilution plate method with resazurin as an indicator [28]. In the 96-well plates, 100 μL of Mueller–Hinton broth (Torlak, Belgrade, Serbia) for bacterial testing and Sabouraud broth (Torlak, Belgrade, Serbia) for fungal testing were dispensed into each well. The compounds under investigation were initially dissolved in a 10% dimethyl sulfoxide (DMSO) solution, followed by dilution in sterile distilled water, resulting in a working compound solution containing 1% DMSO. A 100 μL aliquot of the stock solution of the tested compound was added to the first row, and twofold serial dilutions were then carried out using a multichannel pipette. The resulting concentration range was from 5 to 0.039 mg/mL. The inoculated microtiter plates were incubated at 37 °C for 24 h for bacteria, at 28 °C for 48 h for yeasts, and at 28 °C for 72 h for molds.
Each test also included growth control and sterility control. All tests were conducted in duplicate. MIC was defined as the lowest concentration of tested compounds that prevented resazurin color change from blue to pink. For molds, MIC values of the tested compound were determined as the lowest concentration that inhibited visible mycelia growth. MMC was determined by inoculation of the nutrient agar medium by plating […] of samples from wells, where no indicator color change was recorded. At the end of the incubation period, the lowest concentration with no growth (no colony) was defined as MMC.

Row | SMILES | BIC50 (B. subtilis ATCC 6633) | BIC90 (B. subtilis ATCC 6633) | BIC50 (K. pneumoniae) | BIC90 (K. pneumoniae) | BIC50 (S. aureus ATCC 25923) | BIC90 (S. aureus ATCC 25923) | BIC50 (S. enterica) | BIC90 (S. enterica) | BIC50 (P. mirabilis) | BIC90 (P. mirabilis) | MIC values, range over bacterial strains (tested bacterial strains) | MIC (tested bacterial strains) | antibacterial activity (in words) (tested bacterial strains; tested concentrations 5 to 0.039 mg/mL)
1 | O=C1NCC(c2ccccc2)O1 (stereo not shown) [Compound 7, 5-Phenyl-1,3-oxazolidin-2-one] | >5000 µg/mL | >5000 µg/mL | 4400 µg/mL | >5000 µg/mL | >5000 µg/mL | >5000 µg/mL | 1254 µg/mL | >5000 µg/mL | 3100 µg/mL | 4754 µg/mL | – | – | –
2 | CSC(=S)NCCc1ccccc1 [Compound 1, Methyl phenethylcarbamodithioate] | – | – | – | – | – | – | – | – | – | – | 1.25 to 5 mg/mL | – | –
3 | CSC(=S)NCCc1ccc(O)cc1 [Compound 2, methyl-4-hydroxyphenylethyl dithiocarbamate] | 290 µg/mL | 1250 µg/mL | 580 µg/mL | 3600 µg/mL | 220 µg/mL | 2120 µg/mL | 1100 µg/mL | 3200 µg/mL | 1158 µg/mL | 4500 µg/mL | – | 312 to 1250 µg/mL (≈ 1.37 to 5.5 mM) | –
4 | Oc1ccc(CCN=C=S)cc1 [Compound 8, 2-(4-hydroxyphenyl)ethyl isothiocyanate] | 1100 µg/mL | 2300 µg/mL | 570 µg/mL | 2000 µg/mL | 868 µg/mL | 1360 µg/mL | 1547 µg/mL | >5000 µg/mL | 1428 µg/mL | 2400 µg/mL | – | 312 to 1250 µg/mL (≈ 1.74 to 6.97 mM) | –
5 | O=C1NCC(c2ccccc2)S1 (stereo not shown) [Compound 6, 5-phenyl-1,3-thiazolidin-2-one] | – | – | – | – | – | – | – | – | – | – | – | – | no detectable antibacterial activity
6 | S=C1NCC(c2ccccc2)O1 (racemic) [Compound 4, rac-5-Phenyl-1,3-oxazolidine-2-thione] | 2700 µg/mL | >5000 µg/mL | 3978 µg/mL | >5000 µg/mL | 1500 µg/mL | >5000 µg/mL | 1000 µg/mL | 4470 µg/mL | 3170 µg/mL | >5000 µg/mL | 1.25 to 5 mg/mL | – | –
7 | O=C(O)C1CSC(=S)N1 (stereo not shown) [Compound 3, 2-Thioxothiazolidine-4-carboxylic Acid] | 1190 µg/mL | 2500 µg/mL | 1262 µg/mL | >5000 µg/mL | 2500 µg/mL | >5000 µg/mL | 2400 µg/mL | >5000 µg/mL | 3420 µg/mL | >5000 µg/mL | – | – | –

Source: publication PMC12693701, “Glucosinolate-Derived Metabolites from Barbarea vulgaris (Brassicaceae): Evaluation of Antimicrobial, Antioxidant, and Anti-Inflammatory Potentials” (Molecules, 2025)
